From patent publication US12084443B2, “Process of preparing a PD-1/PD-L1 inhibitor” (Incyte Corporation, priority 2020, dated 2024)

Target: T1, PD-1/PD-L1 protein/protein interaction (Homo sapiens, UniProt Q9NZQ7)
T1 construct: Recombinant human PD-L1 protein (19-238) with a His-tag at the C-terminus; purchased AcroBiosystems PD1-H5229 (PD-L1); PD1-H5257 (PD-1)
Test: PD-1/PD-L1 Homogeneous Time-Resolved Fluorescence (HTRF) binding assay
Conditions: recombinant human PD-1 (25-167) Fc tag and PD-L1 (19-238) His-tag, 25° C., PBS pH 7.4
Description: Example A. PD-1/PD-L1 Homogeneous Time-Resolved Fluorescence (HTRF) Binding Assay The assays were conducted in a standard black 384-well polystyrene plate with a final volume of 20 μL. Inhibitors were first serially diluted in DMSO and then added to the plate wells before the addition of other reaction components. The final concentration of DMSO in the assay was 1%. The assays were carried out at 25° C. in the PBS buffer (pH 7.4) with 0.05% Tween-20 and 0.1% BSA. Recombinant human PD-L1 protein (19-238) with a His-tag at the C-terminus was purchased from AcroBiosystems (PD1-H5229). Recombinant human PD-1 protein (25-167) with Fc tag at the C-terminus was also purchased from AcroBiosystems (PD1-H5257). PD-L1 and PD-1 proteins were diluted in the assay buffer and 10 μL was added to the plate well. Plates were centrifuged and proteins were preincubated with inhibitors for 40 minutes. The incubation was followed by the addition of 10 μL of HTRF detection buffer supplemented with Europium cryptate-labeled anti-human IgG (PerkinElmer-AD0212) specific for Fc and anti-His antibody conjugated to SureLight®-Allophycocyanin (APC, PerkinElmer-AD0059H). After centrifugation, the plate was incubated at 25° C. for 60 min. before reading on a PHERAstar FS plate reader (665 nm/620 nm ratio). […]

T1 sequence (Q9NZQ7 19-238): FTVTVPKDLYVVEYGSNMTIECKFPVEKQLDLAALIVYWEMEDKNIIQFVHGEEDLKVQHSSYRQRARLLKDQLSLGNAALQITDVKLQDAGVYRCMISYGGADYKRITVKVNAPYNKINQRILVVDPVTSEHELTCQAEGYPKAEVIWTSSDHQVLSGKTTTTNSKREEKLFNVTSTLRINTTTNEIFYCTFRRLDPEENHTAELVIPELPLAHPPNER

SMILES: Cc1c(Nc2nccc3cc(CN4CC[C@@H](O)C4)cnc23)cccc1-c1cccc(-c2nc3cc(CN4CC[C@@H](C(=O)O)C4)cc(C#N)c3o2)c1C [Compound 1, (R)-1-((7-cyano-2-(3′-((3-(((R)-3-hydroxypyrrolidin-1-yl)methyl)-1,7-naphthyridin-8-yl)amino)-2,2′-dimethyl-[1,1′-biphenyl]-3-yl)benzo[d]oxazol-5-yl)methyl)pyrrolidine-3-carboxylic acid]
- IC50: ≤ 10 nM
